In patent EP4755889A1, “COMPOUND FOR DETECTING AMYLOID-BETA OLIGOMER AND METHOD FOR DIAGNOSING DEGENERATIVE BRAIN DISEASE USING SAME” (Amyloid Solution Inc., priority 2024, dated 2025):

Assays:
Aβ1-42 oligomers = molecular target: T1, Aβ1-42 oligomers (Homo sapiens, UniProt P05067); experiment: Selectivity for Aβ1-42 over tau domain (fluorescence); assay type: binding; conditions: tau repeat domain 3 aggregates
T1 construct: Aβ1-42 peptide was aggregated at 37 °C for 8 hours
Procedure: Considering that tau protein aggregation is also a major pathological feature of AD, the selectivity of IK15j for Aβ1-42 over tau domains was further evaluated. […] Since repeat domain 3 is a core region of tau aggregates, IK15j was incubated with the tau domain or with Aβ1-42, and the resulting changes in fluorescence intensity were compared. Briefly, Aβ1-42 and tau aggregate samples were each treated with IK15j, and the fluorescence intensity was measured. As a result, the signal of IK15j increased in the presence of Aβ1-42 oligomers compared to that of the tau domain (FIG. 3E).

Aβ oligomers = molecular target: T2, Aβ oligomers (Homo sapiens, UniProt P05067); experiment: Detection of Aβ oligomers spiked into human plasma; assay type: binding; conditions: IK15j (100 µM) for 8 hours
T2 construct: Aβ1-42 peptide was aggregated at 37 °C for 8 hours
Procedure: Aβ1-42 peptide (1,000, 100, 10, 1, 0.1, 0.01, and 0.001 pg/mL) was aggregated at 37 °C for 8 hours and added to human plasma (Sigma-Aldrich, USA). Then, each plasma sample was treated with the compound of the present disclosure (100 µM) for 8 hours at room temperature. The signal of each sample was detected using a microplate reader (λex = 285 nm / λem = 475 nm).
To investigate whether the compound of the present disclosure interacts with Aβ oligomers in plasma, Aβ oligomers were spiked into human plasma (at 100, 10, 1, 0.1, 0.01, 0.001, and 0 pg/mL) and treated with IK15j (100 µM) for 8 hours, as described in Reference Example 9.

Aβn-(n+5) (n = 1 to 37) = experiment: Mapping Amyloid Plate (MAP): binding to immobilized Aβ1-42 hexamer fragments; conditions: MAP treated with IK15j for 24 hours
Procedure: (§1) A Mapping Amyloid Plate (MAP) for investigating the target site of the compound of the present disclosure on Aβ1-42 fragments or Aβ1-42 oligomers was prepared with reference to Korean Patent Application No. 10-2023-0133625, which is incorporated herein by reference in its entirety.
(§2) Briefly, to remove the bovine serum albumin coating from the plate, each well of the plate was washed three times with 200 µL of wash buffer (0.1 M sodium phosphate, 0.15 M sodium chloride, 0.05 % Tween-20, pH 7.2). Full-length and fragmented peptides of Aβ1-42 were individually dissolved in DMSO to prepare […] stock solutions, which were then diluted with binding buffer (0.1 M sodium phosphate, 0.15 M sodium chloride, 10 mM EDTA, pH 7.2) to prepare 50 µg/mL peptide solutions (5 % DMSO). 100 µL of the peptide solution was added to each well and allowed to react with the maleimide at room temperature overnight. After peptide immobilization, unbound peptides were removed by washing three times with 200 µL of wash buffer. […]
Two conditions were prepared to confirm whether the compound of the present disclosure targets the structure or the sequence of Aβ oligomers. […] The fluorescence intensity of both plates was measured using a microplate reader (λex = 285 nm/λem = 475 nm). […]

Aβ oligomers (oAβ) = molecular target: T3, Aβ oligomers (oAβ) (Homo sapiens, UniProt P05067); experiment: Fluorescence on plate-immobilized Aβ monomers and oligomers; assay type: binding; conditions: mAβ and oAβ at 10 µM each immobilized on a plate; IK15j (100 µM) for 24 hours
T3 construct: Full-length and fragmented peptides of Aβ1-42 were individually dissolved in DMSO
Procedure: as §2
In addition, considering that EPPS might interfere with the interaction between IK15j and Aβ monomers, Aβ monomers and oligomers were immobilized on a plate according to the Aβ immobilization protocol of Reference Example 2, and then incubated with IK15j. Briefly, Aβ monomers (mAβ) and Aβ oligomers (oAβ) at 10 µM each were immobilized on a plate, treated with IK15j (100 µM) for 24 hours, and the fluorescence intensity was then measured; blank wells were treated with IK15j (100 µM) alone without immobilization of Aβ species.

albumin = molecular target: T4, albumin (Homo sapiens, UniProt P02768); experiment: Selectivity for blood proteins: albumin; assay type: binding; conditions: IK15j (25 µM)
T4 construct: purchased Sigma-Aldrich
Procedure: Aβ1-42 peptide was aggregated at 37 °C for 8 hours, and 25 µM of Aβ1-42 oligomers, albumin (Sigma-Aldrich, USA), and fibrinogen (Sigma-Aldrich, USA) were seeded into a black microplate. Each sample was treated with IK15j (100 µM) for 8 hours at room temperature. The signal of each sample was detected using a microplate reader (λex = 285 nm / λem = 475 nm).
Excluding water, the solid components of plasma consist of coagulation factors and plasma proteins. Albumin is the most abundant protein in plasma, and fibrinogen is a major coagulation factor in plasma. Considering the possibility that fibrinogen or albumin might interact with AD diagnostic tools and interfere with compound selectivity, IK15j (25 µM) was incubated with Aβ1-42, albumin, or fibrinogen as described in Reference Example 10, and the fluorescence signal of each sample was measured to evaluate the selectivity of the compound of the present disclosure against these proteins.

[1] = molecular target: T5, Aβ1-42-Aβn-(n+5) complexes (Homo sapiens, UniProt P05067); experiment: Mapping Amyloid Plate (MAP): binding to complexes of Aβ1-42 with fragments
T5 construct: full-length Aβ1-42 peptide was added to the MAP and incubated at 37 °C for 8 hours
Procedure: as §1
Briefly, to remove the bovine serum albumin coating from the plate, each well of the plate was washed three times with 200 µL of wash buffer (0.1 M sodium phosphate, 0.15 M sodium chloride, 0.05 % Tween-20, pH 7.2). Full-length and fragmented peptides of Aβ1-42 were individually dissolved in DMSO to prepare […] stock solutions, which were then diluted with binding buffer (0.1 M sodium phosphate, 0.15 M sodium chloride, 10 mM EDTA, pH 7.2) to prepare 50 µg/mL peptide solutions (5 % DMSO). 100 µL of the peptide solution was added to each well and allowed to react with the maleimide at room temperature overnight. After peptide immobilization, unbound peptides were removed by washing three times with 200 µL of wash buffer. To inactivate residual maleimide groups, 200 µL of a cysteine solution (10 µg/mL in binding buffer) was added to each well and incubated at room temperature for 1 hour. After cysteine capping, all wells of the plate were washed three times with 200 µL of wash buffer.
Two conditions were prepared to confirm whether the compound of the present disclosure targets the structure or the sequence of Aβ oligomers. First, the compound of the present disclosure (50 µM) was prepared in binding buffer (10 % DMSO), and 100 µL of the compound was added to the MAP and treated for 24 hours at room temperature. After incubation, all wells were washed three times with 200 µL of wash buffer. Second, full-length Aβ1-42 peptide was added to the MAP and incubated at 37 °C for 8 hours to form complexes between full-length Aβ1-42 and fragmented Aβ1-42. […] The fluorescence intensity of both plates was measured using a microplate reader (λex = 285 nm/λem = 475 nm). […]

[2] = MAP incubated with additional Aβ1-42 for 8 hours, then IK15j for 24 hours

T5 sequence (P05067 672-713, one chain of several): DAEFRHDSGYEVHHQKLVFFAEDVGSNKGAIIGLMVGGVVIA
T2 sequence (P05067 672-713): as the sequence (P05067 672-713, one chain of several) above
T4 sequence (P02768 25-609, species assumed): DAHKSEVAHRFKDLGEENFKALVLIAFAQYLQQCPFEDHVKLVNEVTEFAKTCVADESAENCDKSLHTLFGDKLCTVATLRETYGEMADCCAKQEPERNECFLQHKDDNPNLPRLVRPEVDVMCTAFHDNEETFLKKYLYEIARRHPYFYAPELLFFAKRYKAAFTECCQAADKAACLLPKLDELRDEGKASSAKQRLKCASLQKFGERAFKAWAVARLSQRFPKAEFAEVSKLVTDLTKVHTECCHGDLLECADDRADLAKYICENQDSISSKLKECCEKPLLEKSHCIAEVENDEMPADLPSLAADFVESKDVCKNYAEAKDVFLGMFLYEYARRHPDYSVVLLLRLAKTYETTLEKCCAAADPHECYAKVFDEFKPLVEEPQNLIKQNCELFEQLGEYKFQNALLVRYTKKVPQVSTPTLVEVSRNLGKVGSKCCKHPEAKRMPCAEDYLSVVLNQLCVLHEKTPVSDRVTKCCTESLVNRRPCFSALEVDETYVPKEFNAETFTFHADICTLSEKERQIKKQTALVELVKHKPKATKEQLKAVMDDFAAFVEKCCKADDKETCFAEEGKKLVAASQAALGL
T1 sequence (P05067 672-713): as the sequence (P05067 672-713, one chain of several) above
T3 sequence (P05067 672-713): as the sequence (P05067 672-713, one chain of several) above

signal in the presence of Aβ1-42 oligomers compared to the tau domain (Aβ1-42 oligomers): increased
signal in spiked human plasma compared to blank human plasma (0 pg/mL) (Aβ oligomers; 1 pg/mL Aβ oligomers spiked): increased significantly
increase in fluorescence intensity compared to the control (Aβ oligomers; 10-100 pg/mL Aβ spiked human plasma samples): 52%
signal across all Aβ fragments (Aβn-(n+5) (n = 1 to 37); heatmap): relatively low across all fragments
fluorescence signal with Aβ oligomers in contrast to Aβ monomers (Aβ oligomers (oAβ)): markedly increased
interaction with albumin (albumin): did not interact
binding affinity for the N-terminus of Aβ, Aβ1-8 (DAEFRHDS) ([1]; MAP complexes): moderate binding affinity
binding to complexes of Aβ1-42 with Aβ19-25 (FFAEDVG) and Aβ35-42 (MVGGVVIA) [1, 2]: bound strongly
overall signal in the presence of Aβ1-42-Aβn-(n+5) complexes [1, 2]: increased
SMILES: Cc1ccc2c(c1)c(-c1ccccc1)cn1c(C)cc(C#N)c21 [IK15j, 3,8-dimethyl-6-phenylpyrrolo[2,1-a]isoquinoline-1-carbonitrile]
signal in Aβ fragments compared to Aβ1-42 (Aβn-(n+5) (n = 1 to 37)): increase in IK15j signal was observed in 10 Aβ fragments (Aβ14-19 to Aβ23-28)
